{"source": "patent US6005099A", "about": "“Glucosamine disaccharides, method for their preparation, pharmaceutical composition comprising same, and their use” (priority 1993, dated 1999)", "key": {"[1]": {"assay": "Solubility in water", "assay_type": "physicochemical", "conditions": "sodium salt"}, "[2]": {"system": "murine peritoneal macrophages", "assay": "Stimulation of nitrite production in murine peritoneal macrophages", "assay_type": "cell-based", "conditions": "quantity determined by HPLC absorption vs disaccharide A", "procedure": "The biological activity of the fractions was tested by the stimulation of nitrite production in murine peritoneal macrophages as described hereinbefore.\nThe quantity of each analogue in the stock solution was determined from the absorption on HPLC with reference to that of disaccharide A. The fractions show activities of the same order as disaccharide A (FIG. 8). […] The position of the acyloxyacyl, 2 versus 2', has only a minor influence on the activity.\nIn order to eliminate the possibility that activity was due to contamination of the samples by other substances such as LPS, disaccharides E, F, G and H were repurified on reversed-phase HPLC and the regions of the HPLC baseline just before and just after the peak were also collected and treated in the same way as the fractions containing the peaks of material. The activity of the peak fractions and the baseline fractions was tested. […] The stimulation of nitrite production is thus specifically associated with the lipid A analogues."}, "[3]": {"system": "protease in LAL", "assay": "Endotoxicity, chromogenic LAL test with 0.1 mg/ml bovine serum albumin", "assay_type": "biochemical, Limulus polyphemus", "conditions": "n=4 or 6", "procedure": "(§1) The endotoxicity was also measured in the chromogenic test, in which the activation of a protease in LAL by LPS was measured using a chromogen (Ac-Ile-Glu-Ala-Arg-pNA; Bio Whittaker Kit No. 50-650U). The colour formation (liberation of pNA (p-nitroaniline)) was measured at 405 nm.\n(§2) Samples were pre-incubated at 37° C. during 10 minutes and subsequently chromogen-comprising LAL was added. The time required for reaching an optical density of 0.2 at 405 nm was measured. The endotoxin activity was calculated in comparison to a reference curve obtained for LPS standards.\nThe endotoxicity of the disaccharides E, F and G was determined using the chromogenic LAL test (see infra). However, instead of using 1 mg/ml bovine serum albumin, 0.1 mg/ml has been used. The results (n=4 or 6) were obtained in two series of experiments and are shown hereafter."}, "[4]": {"system": "Limulus amoebocyte lysate (LAL)", "assay": "Endotoxicity in the limulus amoebocyte lysate (LAL) test (gelification and chromogenic)", "assay_type": "biochemical, Limulus polyphemus", "procedure": "(§3) The endotoxicity and the biological activity of disaccharide A (example 1) and of disaccharide B (example 2) were determined and compared to that of lipopolysaccharide originating from Escherichia coli O111:B4 (Sigma, Product No. L3024), lipid A (Sigma, Product No. L5399; used as a starting material in example 4), and 3-O-deacylated lipid A originating from lipid A of Escherichia coli F583 (prepared as in the comparative example), but without purification by HPLC.\n(§4) The endotoxicity was determined in the Limulus amoebocyte lysate (LAL) test. This test is based on the observation that endotoxins induce coagulation of the hemolymph of Limulus polyphemus.\n(§5) In the gelification test serial dilutions of the compound to be tested were mixed with LAL 1:1, (v/v) (Haemachem Inc., sensitivity LAL 0.06 endotoxin units/ml), and the mixture was incubated for one hour at 37° C. Then gel formation was monitored by measuring the optical density at 405 nm. The last dilution which formed a gel was determined by inverting the reaction microplate. The endotoxin activity in the samples was determined by comparison with dilutions of a lipopolysaccharide standard (1 endotoxin unit=0.1 ng LPS).\nThe endotoxicity was also measured in the chromogenic test, in which the activation of a protease in LAL by LPS was measured using a chromogen (Ac-Ile-Glu-Ala-Arg-pNA; Bio Whittaker Kit No. 50-650U). […]"}, "[5]": {"system": "Limulus amoebocyte lysate (LAL)", "assay": "Endotoxicity, LAL gelification test", "assay_type": "biochemical, Limulus polyphemus", "conditions": "ng LPS per ng product, n = 2-12", "procedure": "as §3, §4, §5\n(§6) The results are expressed in table 3 as: ng LPS per ng product."}, "[6]": {"system": "protease in LAL", "assay": "Endotoxicity, chromogenic LAL test", "assay_type": "biochemical, Limulus polyphemus", "conditions": "ng LPS per ng product, n = 1-10", "procedure": "as §3, §4, §1, §2, §6"}, "[7]": {"system": "macrophages of C57BL/6 mice", "assay": "Nitric oxide (NO) production in supernatants of macrophages", "assay_type": "cell-based", "procedure": "Bone marrow was collected from hip, femur and tibia of six week old male C57BL/6 mice.\nAfter 7 days the mature macrophages were collected and resuspended in Dulbecco modified medium comprising 5% foetal calf serum to a concentration of 7×10^6 cells per ml. This cell suspension was mixed 1:1, (v/v) with samples diluted in the same medium and used in the biological tests performed in microplates with 70,000 cells/well (incubation at 37° C. for 22 hours, 100% humidity and 8% CO2).\nNitric oxide (NO) is produced by macrophages in response to bacterial infection and in particular LPS. NO seems to have cytostatic and cytotoxic properties. NO is extremely reactive and rapidly converted by oxidation into nitrite and nitrate.\nThe nitrite formation was determined using the Griess test (addition of 1:1, (v/v) N-(1-naphthyl)ethylene diamine hydrochloride [1 g/l in water] and p-aminobenzenesulphonamide [10 g/l in 5% H3 PO4 ]). The nitrite concentration in supernatants of activated macrophages was calculated in comparison to NaNO2 standards."}}, "note": "“Also recorded” adds a separate entry of the source. Structures can show the parent of a compound that is named as a salt.", "data": [{"smiles": "CCCCCCCCCCCC(=O)O[C@H](CCCCCCCCCCC)CC(=O)N[C@H]1[C@H](OC[C@H]2O[C@H](OP(=O)(O)O)[C@H](NC(=O)C[C@H](O)CCCCCCCCCCC)[C@@H](O)[C@@H]2O)O[C@H](CO)[C@@H](OP(=O)(O)O)[C@@H]1O", "note": "[sodium salt]", "values": [{"measurement": "Solubility in water, in words", "setting": "[1]", "result": "freely soluble in water"}, {"measurement": "solubility", "setting": "[1]", "result": "≥ 100", "unit": "mg/mL"}]}, {"smiles": "CCCCCCCCCCCC(=O)O[C@H](CCCCCCCCC)CC(=O)N[C@H]1[C@H](OC[C@H]2O[C@H](OP(=O)(O)O)[C@H](NC(=O)C[C@@H](CCCCCCCCC)OC(=O)[C@@H](O)CCCCCCCCCC)[C@@H](O)[C@@H]2O)O[C@H](CO)[C@@H](OP(=O)(O)O)[C@@H]1O", "note": "[disaccharide H, 2-Deoxy-6-O-[2-deoxy-2-[(R)-3-dodecanoyloxydodecanoylamino]-4-O-phosphono-β-D-glucopyranosyl]-2-[(R)-3-[(S)-2-hydroxydodecanoyloxy]-dodecanoylamino]-α-D-glucopyranosyl dihydrogenphosphate]", "values": [{"measurement": "Stimulation of nitrite production, in words", "setting": "[2]", "result": "most active"}]}, {"smiles": "CCCCCCCCCCCC(=O)O[C@H](CCCCCCCCC)CC(=O)N[C@H]1[C@H](OC[C@H]2O[C@H](OP(=O)(O)O)[C@H](NC(=O)C[C@H](O)CCCCCCCCC)[C@@H](O)[C@@H]2O)O[C@H](CO)[C@@H](OP(=O)(O)O)[C@@H]1O", "note": "[disaccharide G, 2-Deoxy-6-O-[2-deoxy-2-[(R)-3-dodecanoyloxydodecanoylamino]-4-O-phosphono-β-D-glucopyranosyl]-2-[(R)-3-hydroxydodecanoylamino]-α-D-glucopyranosyl dihydrogenphosphate]", "values": [{"measurement": "Endotoxic activity in LAL", "setting": "[3]", "result": "0.00006 ± 0.00003", "unit": "mg/mg"}]}, {"smiles": "CCCCCCCCCC[C@H](O)C(=O)O[C@H](CCCCCCCCC)CC(=O)N[C@H]1[C@H](OC[C@H]2O[C@H](OP(=O)(O)O)[C@H](NC(=O)C[C@H](O)CCCCCCCCC)[C@@H](O)[C@@H]2O)O[C@H](CO)[C@@H](OP(=O)(O)O)[C@@H]1O", "note": "[disaccharide E, 2-Deoxy-6-O-[2-deoxy-2-[(R)-3-[(S)-2-hydroxydodecanoyloxy]-dodecanoylamino]-4-O-phosphono-β-D-glucopyranosyl]-2-[(R)-3-hydroxydodecanoylamino]-α-D-glucopyranosyl dihydrogenphosphate]", "values": [{"measurement": "Endotoxic activity in LAL", "setting": "[3]", "result": "0.000005 ± 0.000002", "unit": "mg/mg"}]}, {"smiles": "CCCCCCCCCCCCCC(=O)O[C@H](CCCCCCCCCCC)CC(=O)N[C@H]1[C@H](OC[C@H]2O[C@H](OP(=O)(O)O)[C@H](NC(=O)C[C@H](O)CCCCCCCCCCC)[C@@H](O)[C@@H]2O)O[C@H](CO)[C@@H](OP(=O)(O)O)[C@@H]1O", "note": "[disaccharide B, 2-Deoxy-6-O-[2-deoxy-2-[(R)-3-tetradecanoyloxytetradecanoylamino]-4-O-phosphono-β-D-glucopyranosyl]-2-[(R)-3-hydroxytetradecanoylamino]-α-D-glucopyranosyl dihydrogenphosphate]", "values": [{"measurement": "Endotoxicity in LAL, in words", "setting": "[4]", "result": "lowest endotoxicity"}, {"measurement": "Endotoxic activity in LAL, gelification", "setting": "[5]", "result": "0.004 ± 0.002", "unit": "ng/ng"}, {"measurement": "Endotoxic activity in LAL, chromogen", "setting": "[6]", "result": 0.0008, "unit": "ng/ng"}, {"measurement": "EC50", "setting": "[7]; Mus musculus, Macrophage, product concentration corresponding to 50% activity, 22 hours, 37° C.", "result": 0.05, "unit": "µg/mL"}, {"measurement": "minimal effective concentration", "setting": "[7]; Mus musculus, Macrophage, product concentration corresponding to induced NO activity, 22 hours, 37° C., read-out: NO production: Minimum activity (product concentration)", "result": 0.0005, "unit": "µg/mL"}, {"measurement": "NO activity at 50% in nmol of NO2- /ml", "setting": "[7]; extrapolated from the series dilution curve", "result": "5 nmol of NO2- /ml"}, {"measurement": "NO production, in words", "setting": "[7]; macrophages of C57BL/6 mice", "result": "induce NO production of the same order; also recorded: as strongly as lipid A and 3-O-deacylated lipid A"}, {"measurement": "NO production: Maximum activity (product concentration)", "setting": "[7]; product concentration corresponding to induced NO activity, 22 hours, 37° C.", "result": 16, "unit": "µg/mL"}]}, {"smiles": "CCCCCCCCCC[C@H](O)C(=O)O[C@H](CCCCCCCCC)CC(=O)N[C@H]1[C@@H](OP(=O)(O)O)O[C@H](CO[C@@H]2O[C@H](CO)[C@@H](OP(=O)(O)O)[C@H](O)[C@H]2NC(=O)C[C@H](O)CCCCCCCCC)[C@@H](O)[C@@H]1O", "note": "[disaccharide F, 2-Deoxy-6-O-[2-deoxy-2-[(R)-3-hydroxydodecanoylamino]-4-O-phosphono-β-D-glucopyranosyl]-2-[(R)-3-[(S)-2-hydroxydodecanoyloxy]-dodecanoylamino]-α-D-glucopyranosyl dihydrogenphosphate]", "values": [{"measurement": "Endotoxic activity in LAL", "setting": "[3]", "result": "0.000025 ± 0.000026", "unit": "mg/mg"}]}]}
